Measured values published in publication PMC7670487 (ACS Infectious Diseases, 2020).
Read-outs that look alike come from different tables or passages of the source.

Experiments:
T. cruzi amastigotes [1] = assay: Antiamastigote assay (intracellular, infected peritoneal macrophages, infection index by microscopy); format: cell-based, Trypanosoma cruzi; conditions: for IC50: Trypanosoma cruzi, Peritoneal macrophage, in Mus musculus, intracellular amastigotes in BALB/c peritoneal macrophages, 48 h, 30–0.23 μM, read-out: IC50 (μM) ± SD amastigote
Procedure: Our attention next turned to an evaluation of the activity of the various natural product analogues against T. cruzi amastigotes (evaluated microscopically using an ex vivo intracellular model with mice macrophages)[20] and trypomastigotes (resazurin in vitro assay).[30] […] Macrophages were collected from the peritoneal cavity of BALB/c mice by washing them with RPMI-1640 medium supplemented with 10% fetal calf serum and were maintained at 37 °C in a 5% CO2 humidified incubator. Trypomastigotes of T. cruzi (Y strain) were maintained in Rhesus monkey kidney cells (LLC-MK2, ATCC CCL 7) and cultivated in RPMI-1640 medium supplemented with 2% fetal calf serum at 37 °C in a 5% CO2 humidified incubator. Murine conjunctive cells (NCTC clone 929, ATCC) were maintained in RPMI-1640 supplemented with 10% FBS at 37 °C in a 5% CO2 humidified incubator.[20] Peritoneal macrophages (1 × 10^5 cells/well), collected from the peritoneal cavity of the BALB/c mice, were seeded in 16-well chamber slides (NUNC, Thermo Fisher Scientific) and infected with trypomastigotes (10:1, parasite/macrophage ratio). After 2 h, the compounds (in concentrations of 30–0.23 μM) were incubated with infected macrophages for 48 h at 37 °C in a 5% CO2 humidified incubator. The slides were fixed with MeOH, stained with Giemsa, and observed under a light microscope (EVOS M5000, Termo, USA) with digital image equipment. […] IC50 and CC50 values were calculated using a sigmoid dose–response curve in GraphPad Prism 6.0 software (GraphPad Software, San Diego, CA, USA). The assays were repeated at least twice, and the samples were tested in duplicate.

[2] = test system: Fibroblast NCTC cells (clone 929); assay: Cytotoxicity against mammalian cells (MTT); format: cell-based, murine; conditions: for SI (selectivity index): ratio between CC50 in NCTC cells and IC50 in intracellular amastigotes; for CC50 (μM) ± SD: NCTC clone 929 cells, 48 h, 200–1.56 μM, MTT
Procedure: (§1) Macrophages were collected from the peritoneal cavity of BALB/c mice by washing them with RPMI-1640 medium supplemented with 10% fetal calf serum and were maintained at 37 °C in a 5% CO2 humidified incubator. Trypomastigotes of T. cruzi (Y strain) were maintained in Rhesus monkey kidney cells (LLC-MK2, ATCC CCL 7) and cultivated in RPMI-1640 medium supplemented with 2% fetal calf serum at 37 °C in a 5% CO2 humidified incubator. Murine conjunctive cells (NCTC clone 929, ATCC) were maintained in RPMI-1640 supplemented with 10% FBS at 37 °C in a 5% CO2 humidified incubator.[20] […] The selectivity index (SI) was determined as CC50/IC50 against amastigotes. IC50 and CC50 values were calculated using a sigmoid dose–response curve in GraphPad Prism 6.0 software (GraphPad Software, San Diego, CA, USA). The assays were repeated at least twice, and the samples were tested in duplicate.

[3] = Cytotoxicity against mammalian cells (MTT); format: cell-based, murine; conditions: mouse, NCTC clone 929 fibroblast cells; NCTC clone 929 cells, 48 h, 200–1.56 μM, MTT
Procedure: as §1

[4] = test system: T. cruzi (Y strain) trypomastigotes; assay: Antitrypomastigote assay (resazurin viability); format: cell-based; conditions: Trypanosoma cruzi, LLC-MK2-derived trypomastigotes, 24 h incubation, up to 100 μM, read-out: IC50 (μM) ± SD trypomastigote
Procedure: Our attention next turned to an evaluation of the activity of the various natural product analogues against T. cruzi amastigotes (evaluated microscopically using an ex vivo intracellular model with mice macrophages)[20] and trypomastigotes (resazurin in vitro assay).[30] […] Macrophages were collected from the peritoneal cavity of BALB/c mice by washing them with RPMI-1640 medium supplemented with 10% fetal calf serum and were maintained at 37 °C in a 5% CO2 humidified incubator. Trypomastigotes of T. cruzi (Y strain) were maintained in Rhesus monkey kidney cells (LLC-MK2, ATCC CCL 7) and cultivated in RPMI-1640 medium supplemented with 2% fetal calf serum at 37 °C in a 5% CO2 humidified incubator. Murine conjunctive cells (NCTC clone 929, ATCC) were maintained in RPMI-1640 supplemented with 10% FBS at 37 °C in a 5% CO2 humidified incubator.[20] LLC-MK2-derived trypomastigotes were seeded (1 × 10^6 cells/well) in 96-well plates and incubated with the compounds serially diluted 2-fold (up to 100 μM) for 24 h in RPMI 1640 medium at 37 °C in a 5% CO2 humidified incubator. Subsequently, resazurin (0.011% in PBS) was added for 24 h to check the parasite viability.[30] The optical density was determined in the FilterMax F5 (Molecular Devices) at 570 nm. Benznidazole was used as the standard. IC50 and CC50 values were calculated using a sigmoid dose–response curve in GraphPad Prism 6.0 software (GraphPad Software, San Diego, CA, USA). The assays were repeated at least twice, and the samples were tested in duplicate.

[5] = test system: Fibroblast NCTC cells (clone 929); conditions: cited from earlier work
T. cruzi amastigotes [6] = conditions: T. cruzi intracellular amastigotes; read-out: IC50 (μM) ± SD amastigote; cited from earlier work

| SMILES | IC50 (T. cruzi amastigotes [1]) | SI (selectivity index) [2] | CC50 at 48 h [3] | IC50 [4] | fold more potent than the natural product 1 against the amastigotes (T. cruzi amastigotes [1]; relative to compound 1, amastigote IC50) | CC50 ([5]; NCTC cells) | SI (selectivity index) ([5]; ratio between CC50 in NCTC cells and IC50 in intracellular amastigotes) | IC50 (T. cruzi amastigotes [6]) | CC50 (μM) ± SD [2] |
| --- | --- | --- | --- | --- | --- | --- | --- | --- | --- |
| C=CCc1ccc(Oc2cc(CC=C)cc(OC)c2OCOC)c(OC)c1 [Compound 5] | 24.4 ± 10.3 µM | >8.2 | > 200 µM | 6.5 ± 4.9 µM |  |  |  |  |  |
| C=CCc1ccc(Oc2cc(CC=C)cc(OC)c2OCc2ccc(OC)cc2)c(OC)c1 [Compound 6] | 4 ± 1.4 µM | >50 | > 200 µM |  | approximately 20 fold |  |  |  |  |
| CCCc1ccc(Oc2cc(CCC)cc(OC)c2OC)c(OC)c1 [Compound 9] |  |  |  |  |  | > 200 µM | >15.0 | 13.3 ± 1.2 µM |  |
| CCCc1ccc(Oc2cc(CCC)cc(OC)c2OCc2ccc(OC)cc2)c(OC)c1 [Compound 10] | 5.5 ± 3.5 µM | >36.4 | > 200 µM |  |  |  |  |  |  |
| C=CCc1cc(OC)c(OC)c(Oc2ccc(CCC)cc2OC)c1 [Compound 11] | 11.7 ± 7 µM | >17.1 | > 200 µM | 21.9 ± 6.1 µM |  |  |  |  |  |
| C=CCc1cc(OC)c(OCc2ccc(OC)cc2)c(Oc2ccc(CCC)cc2OC)c1 [Compound 12] | 8.6 ± 2.1 µM | >23.3 | > 200 µM |  |  |  |  |  |  |
| C=CCc1cc(OC)c(O)c(Oc2ccc(CCC)cc2OC)c1 [Compound 13] | 16.6 ± 1 µM | 2.5 | 42 ± 3.8 µM | 7.6 ± 1.9 µM |  |  |  |  | significant mammalian toxicity |
| C=CCc1ccc(Oc2cc(CC=C)cc(OC)c2OCc2ccc(OC)cc2)cc1 [Compound 14] | 11 ± 2.3 µM | >18.2 | > 200 µM |  |  |  |  |  |  |
| C=CCc1ccc(Oc2cc(CC=C)cc(OC)c2O)cc1 [Compound 15, 3-methylobovatol] | 22.5 ± 18.8 µM | 5.5 | 123 ± 9.4 µM | 4.6 ± 3 µM |  |  |  |  |  |
| C=CCc1cc(OC)c(OC)c(Oc2ccccc2OC)c1 [Compound 16] |  |  | > 200 µM | 20.3 ± 0.4 µM |  |  |  |  |  |
| C=CCc1cc(OC)c(OCc2ccc(OC)cc2)c(Oc2ccccc2OC)c1 [Compound 17] |  |  | > 200 µM |  |  |  |  |  |  |
| C=CCc1ccc(Oc2cc(CCC)cc(OC)c2OCc2ccc(OC)cc2)c(OC)c1 [Compound 18] | 13.4 ± 5.4 µM | >14.9 | > 200 µM |  |  |  |  |  |  |
| C=CCc1ccc(Oc2cc(CCC)cc(OC)c2O)c(OC)c1 [Compound 19] | 10.5 ± 8.3 µM | 1.3 | 14.2 ± 0.1 µM | 4.6 ± 3.8 µM |  |  |  |  | significant mammalian toxicity |
| C=CCc1ccc(Oc2cccc(OC)c2OC)c(OC)c1 [Compound 20] | 25.7 ± 12.2 µM | >7.8 | > 200 µM | 63.1 ± 6.2 µM |  |  |  |  |  |
| C=CCc1ccc(Oc2cccc(OC)c2OCc2ccc(OC)cc2)c(OC)c1 [Compound 21] |  |  | > 200 µM |  |  |  |  |  |  |
| C=CCOc1c(OC)cccc1Oc1ccc(CC=C)cc1OC [Compound 22] |  |  | > 200 µM |  |  |  |  |  |  |
| C=CCc1ccc(O)c(Oc2ccc(CC=C)cc2OC)c1 [Compound 23] | 7.7 ± 1.3 µM | 16.7 | 129 ± 5.2 µM | 2.5 ± 1.3 µM |  |  |  |  |  |
| C=CCc1ccc(Oc2cc(CC=C)ccc2OCc2ccc(OC)cc2)c(OC)c1 [Compound 24] | 11.6 ± 8.4 µM | >17.2 | > 200 µM |  |  |  |  |  |  |
| C=CCc1cc(OC)cc(Oc2ccc(CC=C)cc2OC)c1 [Compound 25] | 10.9 ± 6.5 µM | >18.3 | > 200 µM |  |  |  |  |  |  |
| O=C(Cn1ccnc1[N+](=O)[O-])NCc1ccccc1 [benznidazole, reference compound] | 5 ± 1.5 µM | 38.1 | 191 ± 13.4 µM | 17.7 ± 1.9 µM |  |  |  |  |  |
